The experiment has as its target T1, IRAK4 (Homo sapiens, UniProt Q9NWZ3).
T1 sequence (Q9NWZ3 1-460): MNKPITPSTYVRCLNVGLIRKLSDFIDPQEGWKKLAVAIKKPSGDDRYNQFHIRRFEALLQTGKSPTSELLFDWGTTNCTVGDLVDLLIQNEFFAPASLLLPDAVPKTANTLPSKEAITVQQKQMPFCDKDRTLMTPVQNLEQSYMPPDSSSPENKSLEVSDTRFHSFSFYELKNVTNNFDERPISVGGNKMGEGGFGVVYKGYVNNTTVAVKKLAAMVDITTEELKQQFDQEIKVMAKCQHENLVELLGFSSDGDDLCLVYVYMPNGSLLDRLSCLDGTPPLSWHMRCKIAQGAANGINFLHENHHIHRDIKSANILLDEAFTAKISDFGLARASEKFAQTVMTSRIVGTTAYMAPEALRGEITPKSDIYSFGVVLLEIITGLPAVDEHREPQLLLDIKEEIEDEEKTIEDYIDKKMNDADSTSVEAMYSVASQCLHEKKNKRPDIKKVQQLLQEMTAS
As to the kind of experiment: Hibit fluorescence detection of proteolysis (IRAK4-HiBiT in HEK293T cells). Type of experiment: cell-based. Also on record: host or cells: HEK293T (ATCC). The essentials: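 Degradation read-out: luminescence from lytic HiBiT detection (15 min, room temperature) after 24 h compound exposure (37 °C, 5% CO2) of HEK293T cells transiently expressing IRAK4 fused to a HiBiT tag. Data fitted to a bell-shaped four-parameter model giving two EC50 values.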
Background: The HiBiT peptide binds its large partner to form an active luciferase.

Where [1] appears, read: IRAK4-HiBiT, HEK293T cells, 24 h, read-out: DC50.
Setting [2] is: IRAK4-HiBiT, HEK293T cells, 24 h.

Read-outs that look alike come from different tables or passages of the source.

The text below walks through data of EP4759807A1, “PROTEOLYSIS TARGETING CHIMERA COMPOUND FOR DEGRADING IRAK4 AND USE THEREOF” (Shenzhen Zhongge Biological Technology Co., Ltd., priority 2023, dated 2025).

Under “HEK-293T”, `Cn1c(=O)n(C2CCC(=O)NC2=O)c2cccc(N3CCC4(CCN(C[C@H]5CC[C@H](n6cc(-n7cc(-c8cnn9cc(C#N)cnc89)nn7)c(C(F)F)n6)CC5)CC4)C3)c21` (stereo partly shown) [Compound 202] displayed a Dmax of less than 60%. The DC50 under setting [1] was in the range of 0.5 to 1 nM.

For `Cn1c(=O)n(C2CCC(=O)NC2=O)c2cccc(C#CC3CN(C[C@H]4CC[C@H](n5cc(-n6cc(-c7ccc8cc(C(N)=O)cnn78)nn6)c(C(F)F)n5)CC4)C3)c21` (stereo partly shown) [Example 87], the Dmax (HEK-293T) fell in the range of 70 to 80%. Also, the DC50 under setting [2] lay within 0.5 to 1 nM.

For `CN(Cc1cccc2c1n(C)c(=O)n2C1CCC(=O)NC1=O)CC1CCN(C[C@H]2CC[C@H](n3cc(-n4cc(-c5cnn6ccc(N7CCOCC7)nc56)nn4)c(C(F)F)n3)CC2)CC1` (stereo partly shown) [Example 3, 3-(4-((((1-(((1r,4r)-4-(3-(difluoromethyl)-4-(4-(5-morpholinopyrazolo[1,5-a]pyrimidin-3-yl)-1H-1,2,3-triazol-1-yl)-1H-pyrazol-1-yl)cyclohexyl)methyl)piperidin-4-yl)methyl)(methyl)amino)methyl)-3-methyl-2-oxo-2,3-dihydro-1H-benzo[d]imidazol-1-yl)piperidine-2,6-dione], the Dmax (HEK-293T) was 60 to 70%. The DC50 under setting [2] is less than 0.5 nM.

`Cn1c(=O)n(C2CCC(=O)NC2=O)c2cccc(N3CCN(C4CN(C[C@H]5CC[C@H](n6cc(-n7cc(-c8cnn9ccc(N%10CCOCC%10)nc89)nn7)c(C(F)F)n6)CC5)C4)CC3)c21` (stereo partly shown) [Example 44] displayed a Dmax (HEK-293T) of more than 80%. Moreover, the DC50 under setting [2] was less than 0.5 nM.

On to `C[C@@H]1CN(C[C@H]2CC[C@H](n3cc(-n4cc(-c5cnn6ccc(N7CCOCC7)nc56)nn4)c(C(F)F)n3)CC2)CCN1c1cccc2c1n(C)c(=O)n2C1CCC(=O)NC1=O` (stereo partly drawn) [Example 46, 3-(4-((R)-4-(((1r,4R)-4-(3-(difluoromethyl)-4-(4-(5-morpholinopyrazolo[1,5-a]pyrimidin-3-yl)-1H-1,2,3-triazol-1-yl)-1H-pyrazol-1-yl)cyclohexyl)methyl)-2-methylpiperazin-1-yl)-3-methyl-2-oxo-2,3-dihydro-1H-benzo[d]imidazol-1-yl)piperidine-2,6-dione], for which the Dmax (HEK-293T) fell in the range of 70 to 80%. Moreover, the DC50 under setting [2] is less than 0.5 nM.

`Cn1c(=O)n(C2CCC(=O)NC2=O)c2cccc(CNC3CC4(CCN(C[C@H]5CC[C@H](n6cc(-n7cc(-c8cnn9ccc(N%10CCOCC%10)nc89)nn7)c(C(F)F)n6)CC5)CC4)C3)c21` (stereo partly shown) [Example 10]: for the setting “HEK-293T”, the Dmax was more than 80%. The DC50 under setting [2] is less than 0.5 nM.

`Cn1c(=O)n(C2CCC(=O)NC2=O)c2cccc(N3CCOC4(CCN(C[C@H]5CC[C@H](n6cc(-n7cc(-c8ccc9cc(C(N)=O)cnn89)nn7)c(C(F)F)n6)CC5)CC4)C3)c21` (stereo partly shown) [Example 88] yielded a Dmax (HEK-293T) of 70 to 80%. The molecule also gave a DC50 under setting [2] of less than 0.5 nM.

As for `C[C@H]1CN(c2cccc3c2n(C)c(=O)n3C2CCC(=O)NC2=O)CCN1C[C@H]1CC[C@H](n2cc(-n3cc(-c4cnn5ccc(N6CCOCC6)nc45)nn3)c(C(F)F)n2)CC1` (stereo partly shown) [Example 52], under “HEK-293T”, the Dmax was in the range of 70 to 80%. Under setting [2], this molecule had a DC50 of 0.5 to 1 nM.

In turn, `NC(=O)c1cnn2c(-c3cn(-c4cn(C5CCN(CCN6CCN(c7ccc8c(c7)C(=O)N(C7CCC(=O)NC7=O)C8=O)CC6)CC5)nc4C(F)F)nn3)ccc2c1` (stereo not shown) [Example 93] returned a Dmax (HEK-293T) of 70 to 80%. The same molecule registered a DC50 under setting [2] of 1 to 5 nM.

On to `Cn1c(=O)n(C2CCC(=O)NC2=O)c2cccc(C3CN(C4CCN(C[C@H]5CC[C@H](n6cc(-n7cc(-c8ccc9cc(C(N)=O)cnn89)nn7)c(C(F)F)n6)CC5)CC4)C3)c21` (stereo partly shown) [Example 82], for which, where the note is “HEK-293T”, the Dmax was more than 80%. This molecule displayed a DC50 under setting [2] of less than 0.5 nM.

Turning to `Cn1c(=O)n(C2CCC(=O)NC2=O)c2cccc(CC3CCN(CC4CCN(C[C@H]5CC[C@H](n6cc(-n7cc(-c8cnn9ccc(N%10CCOCC%10)nc89)nn7)c(C(F)F)n6)CC5)CC4)CC3)c21` (stereo partly shown) [Example 8], for the setting “HEK-293T”, the Dmax is less than 60%. The DC50 under setting [2] was more than 5 nM.

`Cn1c(=O)n(C2CCC(=O)NC2=O)c2cccc(N3CCC4(CC3)CN(C[C@H]3CC[C@H](n5cc(-n6cc(-c7cnn8ccc(N9CCOCC9)nc78)nn6)c(C(F)F)n5)CC3)CCO4)c21` (stereo partly shown) [Example 41]: the Dmax (HEK-293T) lay within 70 to 80%. Moreover, under setting [2], the DC50 is 1 to 5 nM.

Molecule `Cn1c(=O)n(C2CCC(=O)NC2=O)c2cccc(C3CCN(C[C@H]4CC[C@H](n5cc(-n6cc(-n7ccc8cc(C(N)=O)cnc87)nn6)c(C(F)F)n5)CC4)CC3)c21` (stereo partly shown) [Example 101, 1-(1-(3-(difluoromethyl)-1-((1r,4r)-4-((4-(1-(2,6-dioxopiperidin-3-yl)-3-methyl-2-oxo-2,3-dihydro-1H-benzo[d]imidazol-4-yl)piperidin-1-yl)methyl)cyclohexyl)-1H-pyrazol-4-yl)-1H-1,2,3-triazol-4-yl)-1H-pyrrolo[2,3-b]pyridine-5-carboxamide] registered a Dmax (HEK-293T) of 70 to 80%. Under setting [2], this molecule registered a DC50 of less than 0.5 nM.

Consider `Cn1c(=O)n(C2CCC(=O)NC2=O)c2cccc(N3C4CCC3CN(C[C@H]3CC[C@H](n5cc(-n6cc(-c7cnn8ccc(N9CCOCC9)nc78)nn6)c(C(F)F)n5)CC3)C4)c21` (stereo partly shown) [Example 48, 3-(4-((1r,4r)-4-(3-(difluoromethyl)-4-(4-(5-morpholinopyrazolo[[1,5-a]pyrimidin-3-yl)-1H-1,2,3-triazol-1-yl)-1H-pyrazol-1-yl)cyclohexyl)-3,8-diazabicyclo[3.2.1]oct-8-yl)-3-methyl-2-oxo-2,3-dihydro-1H-benzo[d]imidazol-1-yl)piperidine-2,6-dione], for which the Dmax (HEK-293T) lay in the range of 60 to 70%. In addition, the DC50 under setting [2] is more than 5 nM.

In turn, `Cn1c(=O)n(C2CCC(=O)NC2=O)c2cccc(CN3CCC4(CC3)CC(NC[C@H]3CC[C@H](n5cc(-n6cc(-c7cnn8ccc(N9CCOCC9)nc78)nn6)c(C(F)F)n5)CC3)C4)c21` (stereo partly shown) [Example 4] had a Dmax (HEK-293T) of more than 80%. This molecule registered a DC50 under setting [2] of less than 0.5 nM.

`Cn1c(=O)n(C2CCC(=O)NC2=O)c2cccc(N3CCC4(CCN(C[C@H]5CC[C@H](n6cc(-n7cc(-c8cnn9ccc(NCCC(C)(C)O)nc89)nn7)c(C(F)F)n6)CC5)C4)CC3)c21` (stereo partly shown) [Example 134] displayed a Dmax (HEK-293T) of more than 80%. Further, under setting [2], the DC50 is less than 0.5 nM.

In turn, `Cn1c(=O)n(C2CCC(=O)NC2=O)c2cccc(C3CN(C4CN(C[C@H]5CC[C@H](n6cc(-n7cc(-c8ccc9cc(C(N)=O)cnn89)nn7)c(C(F)F)n6)CC5)C4)C3)c21` (stereo partly shown) [Example 83] showed a Dmax (HEK-293T) of 70 to 80%. The DC50 under setting [2] is less than 0.5 nM.

Turning to `Cn1c(=O)n(C2CCC(=O)NC2=O)c2cccc(N3CCC4(CCN(C[C@H]5CC[C@H](n6cc(-n7cc(-c8cnn9ccc(N%10CCC(C)(O)CC%10)nc89)nn7)c(C(F)F)n6)CC5)CC4)CC3)c21` (stereo partly shown) [Example 121], the Dmax (HEK-293T) was more than 80%. The molecule also yielded a DC50 under setting [2] of less than 0.5 nM.

With `Cn1c(=O)n(C2CCC(=O)NC2=O)c2cccc(N3CCN(C4CCN(C[C@H]5CC[C@H](n6cc(-n7cc(-c8cnn9ccc(N%10CCC(C)(O)CC%10)nc89)nn7)c(C(F)F)n6)CC5)CC4)CC3)c21` (stereo partly shown) [Compound 236], the Dmax (HEK-293T) was more than 80%. In addition, the DC50 under setting [1] is less than 0.5 nM.

As to `Cn1c(=O)n(C2CCC(=O)NC2=O)c2cccc(CN3CCC4(CC3)CCN(C[C@H]3CC[C@H](n5cc(-n6cc(-c7cnn8ccc(N9CCOCC9)nc78)nn6)c(C(F)F)n5)CC3)CC4)c21` (stereo partly shown) [Example 6], for the setting “HEK-293T”, the Dmax was less than 60%. The molecule also yielded a DC50 under setting [2] of less than 0.5 nM.

As to `C[C@H]1CN(c2cccc3c2n(C)c(=O)n3C2CCC(=O)NC2=O)CCN1C[C@H]1CC[C@H](n2cc(-n3cc(-c4cnn5ccc(N6CCC(C)(O)CC6)nc45)nn3)c(C(F)F)n2)CC1` (stereo partly shown) [Example 284], the Dmax (HEK-293T) lay in the range of 70 to 80%. Besides, under setting [2], the DC50 was less than 0.5 nM.

Regarding `CN1CCN(c2ccn3ncc(-c4cn(-c5cn([C@H]6CC[C@H](CN7CCC(N8CCN(c9cccc%10c9n(C)c(=O)n%10C9CCC(=O)NC9=O)CC8)CC7)CC6)nc5C(F)F)nn4)c3n2)CC1` (stereo partly shown) [Compound 229], the Dmax (HEK-293T) is 60 to 70%. Also, the DC50 under setting [1] was less than 0.5 nM.

`Cn1c(=O)n(C2CCC(=O)NC2=O)c2cccc(NC(=O)CN3CCN(C[C@H]4CC[C@H](n5cc(-n6cc(-n7ccc8cc(C(N)=O)cnc87)nn6)c(C(F)F)n5)CC4)CC3)c21` (stereo partly shown) [Example 107, 1-(1-(3-(difluoromethyl)-1-((1r,4r)-4-((4-(2-((1-(2,6-dioxopiperidin-3-yl)-3-methyl-2-oxo-2,3-dihydro-1H-benzo[d]imidazol-4-yl)amino)-2-oxoethyl)piperazin-1-yl)methyl)cyclohexyl)-1H-pyrazol-4-yl)-1H - 1,2,3-triazol-4-yl)-1H-pyrrolo[2,3-b]pyridine-5-carboxamide] showed a Dmax (HEK-293T) of more than 80%. The same molecule displayed a DC50 under setting [2] of 1 to 5 nM.

For the molecule `Cl.Cn1c(=O)n(C2CCC(=O)NC2=O)c2cccc(N3CCN(C4CCN(C[C@H]5CC[C@H](n6cc(-n7cc(-c8cnn9ccc(N%10CCNCC%10)nc89)nn7)c(C(F)F)n6)CC5)CC4)CC3)c21` (stereo partly shown) [Example 131], the Dmax result under setting [2] is on record as “A (Dmax ≥ 80%)”.

For the molecule `NC(=O)c1cnn2c(-c3cn(-c4cn(C5CCN(CC6CCN(c7ccc(C(=O)NC8CCC(=O)NC8=O)c(F)c7)CC6)CC5)nc4C(F)F)nn3)ccc2c1` (stereo not shown) [Example 95, 7-{1-[3-(difluoromethyl)-1-{1-[(1-{4-[(2,6-dioxopiperidin-3-yl)aminocarbonyl]-3-fluorophenyl}piperidin-4-yl)methyl]piperidin-4-yl}-1H-pyrazol-4-yl]-1H-1,2,3-triazol-4-yl}pyrrolo[1,2-b]pyridazine-3-carboxamide], the Dmax (HEK-293T, IRAK4-HiBiT, HEK293T cells, 24 h, read-out: Dmax) is less than 60%. Further, the DC50 under setting [1] is more than 5 nM.
